Results as given in patent US12576070B2, “Medicine for improving state of pregnancy, and use thereof” (priority 2014, dated 2026).

What was measured:
[1] = system: patient with a past history of both eclampsia and HELLP syndrome; experiment: Tacrolimus monotherapy in a patient with past history of eclampsia and HELLP syndrome (Example 4); format: in vivo, human; conditions: for ALT (U/L) / AST (U/L) / Cr / Hb / LDH (U/L) / Plt (10^4/uL) / WBC: blood examination, with tacrolimus treatment
Description: The patient was a person (y.o.) […] with a past history of both eclampsia and HELLP syndrome. During the first pregnancy when the patient was […], they complained of physical deconditioning from early in their pregnancy. […] Sudden aggravation of the edema, proteinuria and hypertension appeared at 18 weeks gestation, at which time they were diagnosed with preeclampsia. HELLP syndrome and eclampsia occurred at 20 weeks gestation and a stillbirth required an emergency cesarean section. After delivery of the baby, they had severe complications such as pulmonary edema, disseminated intravascular coagulation, and intraperitoneal bleeding. They were medicated via an artificial respirator, and received albumin and a blood transfusion (Table 6). […] Laboratory findings related to infertility such as antiphospholipid syndrome (anti-CL IgG Ab, anti-CL IgM Ab, anti-β2GP-1 Ab, anti-PS/PT Ab, anti-PE IgG Ab, anti-PE IgM Ab), autoimmune disease (ANA and anti-DNA Ab), and disorders of blood coagulation (protein S activity, protein C activity, factor XII activity) were all negative. Although no obvious immunological abnormalities of the Th1(CD4^+IFN-γ+)/Th2 (CD4+IL-4^+) cell ratio (15.2/2.1) in CD4 positive cells (normal range, <10.3) were observed before pregnancy^46, it was assumed that maternal immunity would be activated by the embedding of a fertilized ovum (recognition of fetal antigens) and the abnormalities of maternal-fetal immunity may have inhibited placenta construction and caused fetal growth retardation and hypertension. The patient was treated with 1 mg/day of tacrolimus to control the maternal-fetal immunity. This patient received a monotherapy of tacrolimus without a concomitant treatment of a low dose of aspirin, which is often used as an anti-platelet agent for HDP^47. The course of the pregnancy was stable until the 3rd trimester, and no significant symptoms were observed during the 2nd trimester, at which point HELLP syndrome occurred in their previous pregnancy. Clinical signs of HELLP syndrome rapidly appeared, however, at 33 weeks gestation. A decrease in the Th1 and Th2 cell populations in CD4 positive cells and a reduction in the activity of NK cells over time post-partum were observed, which confirms that the tacrolimus regimen exerted sufficient suppressive effect on those cells, whereas the activity of NK cells was elevated at 32 weeks gestation. A possibility was speculated that NK cell activity was stimulated when a large number of fetal antigens were transferred to the maternal blood circulation after the suppression of the NK cells by the 1 mg/day dose of tacrolimus became insufficient in the 3rd trimester. […] Th1 and Th2 cell populations in CD4 positive cells and the NK cell activity were measured to evaluate the patient's pathological condition. One of the parameters, NK cell activity, indicated an appearance of abnormal maternal-fetal immunity. Other parameters that can be used to evaluate the failure of maternal tolerance for a fetus and activation of maternal immune rejection against a fetus with inflammation include Treg cells, Th17 cells, cytokines, and chemokines^37-44.

[2] = system: women with a history of or susceptible to pregnancy-induced hypertension syndrome; experiment: Tacrolimus treatment of women at risk of pregnancy-induced hypertension syndrome (Example 3); format: in vivo, human
Procedure: Once pregnancy-induced hypertension syndrome develops, the possibility of experiencing repeated onset in the subsequent gestations is very high. The patients were evaluated through a transvaginal ultrasound examination, a Fallopian tube patency test, and hysteroscopy before an index ART cycle. […] Any women who had experienced miscarriage in the previous IVF cycle, who had received an IVF cycle, or who had received vaccination, all within three months, were excluded from the subjects. Any women with acquired or congenital thrombophilia were excluded from the subjects. All the patients were subjected to treatment with tacrolimus in the same manner as in Example 2. The dose of tacrolimus was 1 mg to 3 mg per day. The duration of administration of tacrolimus was from the time point immediately after establishment of pregnancy was confirmed by a pregnancy test, until the day of delivery, in all cases. In Case 1 and Case 3 described below, 3 mg of tacrolimus per day was administered everyday from the time point immediately after establishment of pregnancy was confirmed and until the second trimester of pregnancy, and 2 mg of tacrolimus per day was administered everyday from the third trimester of pregnancy until the delivery. In Case 2 described below, 2 mg of tacrolimus per day was administered everyday from the time point immediately after establishment of pregnancy was confirmed and until the delivery. The treatment was carried out in the same manner as in Example 2. The effects of administering tacrolimus were evaluated on the basis of whether the patients satisfactorily maintained the state of pregnancy without developing pregnancy-induced hypertension syndrome at predetermined time points between the second trimester and the third trimester of pregnancy. Cases in which the evaluation has been roughly completed are as follows.

[3] = Current pregnancy with tacrolimus treatment 1 mg/day
[4] = Current pregnancy with tacrolimus treatment 1 mg/day, after delivery
[5] = Current pregnancy with tacrolimus treatment 1 mg/day, before delivery

C=CCC1/C=C(\C)CC(C)CC(OC)C2OC(O)(C(=O)C(=O)N3CCCCC3C(=O)OC(/C(C)=C/C3CCC(O)C(OC)C3)C(C)C(O)CC1=O)C(C)CC2OC (centres unmarked) [tacrolimus, 17-Allyl-1,14-dihydroxy-12-[2-(4-hydroxy-3-methoxycyclohexyl)-1-methylvinyl]-23,2 5-dimethoxy-13,19,21,27-tetramethyl-11,28-dioxa-4-azatricyclo[22.3.1.04,9]octacos-18-ene-2,3,10,16-tetraone]
Fetal information: fetal growth [1, 3]: −1.9 SD
start of proteinuria (weeks gstation) [1, 3]: 33 weeks gstation
Symptoms: edema [1, 4]: slight
Symptoms: hypertension [1, 4]: transient
complications after deliverly [1, 4]: none
Symptoms: edema [1, 5]: slight
Symptoms: hypertension [1, 5]: not observed
ALT (U/L) ([1]; after delivery): 833 U/L
AST (U/L) ([1]; after delivery): 898 U/L
Cr ([1]; after delivery): 0.59 mg/dL
Hb ([1]; after delivery): 10.5 g/dL
LDH (U/L) ([1]; after delivery): 1995 U/L
Plt (10^4/uL) ([1]; after delivery): 2.2 10^4/uL
WBC ([1]; after delivery): 8220 cells/µL
ALT (U/L) ([1]; before delivery): 71 U/L
AST (U/L) ([1]; before delivery): 65 U/L
Cr ([1]; before delivery): 1 mg/dL
Hb ([1]; before delivery): 11 g/dL
LDH (U/L) ([1]; before delivery): 316 U/L
Plt (10^4/uL) ([1]; before delivery): 10 10^4/uL
WBC ([1]; before delivery): 8280 cells/µL
Th1 and Th2 cell populations in CD4 positive cells ([1]; during pregnancy, with time, tacrolimus 1 mg/day (FIG. 1)): decrease
NK cell activity ([1]; during pregnancy, normal range 18-40%, tacrolimus 1 mg/day (FIG. 1)): decreased in the 2nd trimester and then obviously increased at 32 weeks gestation
course of the pregnancy stable with no emergence of proteinuria, edema or hypertension until ([1]; tacrolimus 1 mg/day monotherapy): 32 weeks gestation
Clinical signs of HELLP syndrome appeared at ([1]; tacrolimus 1 mg/day monotherapy, previous pregnancy: 20 weeks gestation): 33 weeks gestation
prolonged the timing of onset of HELLP syndrome ([1]; tacrolimus 1 mg/day versus previous pregnancy without treatment): about 13 weeks gestation
increase in blood pressure ([2]; Case 1 (intrauterine fetal death in week 38 in previous gestation), 3 mg per day until second trimester, 2 mg per day from third trimester until delivery): did not experience an increase in blood pressure
gave birth to a healthy baby in week ([2]; Case 1, 3 mg per day until second trimester, 2 mg per day from third trimester until delivery): 39 week
increase in blood pressure ([2]; Case 2 (twin pregnancy with infertilitas and positive anti-phosphorus antibody), 2 mg per day until delivery): did not experience an increase in blood pressure
gave birth to a healthy baby in week ([2]; Case 2, 2 mg per day until delivery, premature rupture of the membrane caused by cough, premature birth of twin): 35 week
edema and tendency of blood pressure increase ([2]; Case 3 (intrauterine fetal death in week 32 in previous gestation), 3 mg per day until second trimester, 2 mg per day from third trimester): without edema and without a tendency of blood pressure increase
currently passing week of pregnancy ([2]; Case 3, 3 mg per day until second trimester, 2 mg per day from third trimester): 34 week
